Assay results published in patent US8563254B2, “Biomarkers of tumor pharmacodynamic response” (Novartis AG, priority 2009, dated 2013).

Tests used:
GTL-16 cells = test: Western blot of total protein lysates, GTL-16; format: cell-based, human; conditions: GTL-16, 0.3 μM, 16 hr and 24 hr
Protocol: Total protein lysates were prepared from the GTL-16 and A375 cells with RIPA lysis buffer (Upstate, Millipore Corporation, Charlottesville, Va., USA). Cells were washed with PBS and 500 ul of ice-cold RIPA buffer, containing protease inhibitor cocktail tablet (Roche Diagnostic GmbH, Mannheim, Germany) and phosphatase inhibitors (Sigma-Aldrich, Inc., St. Louis, Mo., USA), was added to each plate on ice. After 15 min the cells were scrapped from the plate surface and spun at 16000 RPM for 10 min at 4° C. The supernatant was collected and frozen at −80° C. Nuclear protein fractions were prepared by the NE-PER nuclear and cytoplasmic extraction kit (Pierce Biotechnology, Rockford, Ill., USA). Proteins were quantified by bicinchoninic acid assay (Pierce Biotechnology, Rockford, Ill., USA) for Western blotting. Primary antibodies specific for NFκB p65, cREL, p-ERK1/2, p-c-jun, ERK1 and Jun were purchased from Santa Cruz Biotechnology (Santa Cruz Biotechnology, Inc., Santa Cruz, Calif., USA) with the exception of Hsp70 and TBP (nuclear loading control), which were obtained from StressGen (StressGen, Assay Designs, Inc., Aim Arbor, Mich., USA) and Abcam (Abcam Inc., Cambridge, Mass., USA), respectively. 4-12% Bis-Tris SDS-PAGE, denaturing, non-reducing gels were loaded with 30 μg of total protein, a SeeBlue2Plus pre-stained protein standard and MES SDS running buffer were utilized for the electrophoretic separation in a XCell SureLock™ Mini-Cell (Invitrogen Corporation, Inc., Carlsbad, Calif., USA). An iBlot™ gel transfer PVDF stack with iBlot™ gel transfer system (Invitrogen) was used. An Odyssey Infrared Imaging System was used to detect the immunocomplex (Li-COR Biotechnologies, Inc., Lincoln, Nebr., USA). Li-COR blocking buffer was used to limit cross-reactivity. Membranes were incubated at 4° C. overnight in the primary antibody diluted in blocking buffer, followed by 1 hr room temperature incubation with a secondary IgG antibody (Li-COR IR dye, Li-COR).

A375 tumor-bearing mice = test: Hsp70 expression in A375 xenograft tumors; format: in vivo; conditions: single 50 mg/kg dose i.v.
Protocol: The in vivo study was carried out in strict accordance with Swiss law for animal protection and was approved by the Swiss Cantonal Veterinary Office of Basel-Stadt. GTL-16 (4×10^6) and A375 cells (5×10^6) were inoculated subcutaneously in the right flank in 200 μl Hanks' balanced salt solution (HBSS) or PBS, respectively. Invasive procedures were performed under Forene anesthesia. All experiments were performed in female Harlan HsdNpa: Athymic Nude-nu mice (Laboratory Animal Services, Novartis Pharma AG, Basel). The animals were kept under optimized hygienic conditions with 12 hr dark, 12 hr light conditions. The animals were fed food and water ad libitum. A single 75 mg/kg and 50 mg/kg dose of Hsp90 inhibitor, NVP-AUY922 was administered to the GTL-16 and A375 tumor-bearing mice, when tumors had reached a mean volume of 200 mm^3-500 mm^3 in size. Mice in the control group were injected with the vehicle (D5W). Serum was isolated and tumors dissected over the time course 0-168 hr. Tumors were cut in two halves. One half was paraffin embedded and the other snap frozen, and stored at −80° C.
Total protein lysates were prepared from the GTL-16 and A375 cells with RIPA lysis buffer (Upstate, Millipore Corporation, Charlottesville, Va., USA). […] Proteins were quantified by bicinchoninic acid assay (Pierce Biotechnology, Rockford, Ill., USA) for Western blotting. […]

A375 cells = test: Cell viability by CellTiter-Glo, A375; format: cell-based, human; conditions: A375, 0.3 μM, 72 hr treatment time
Protocol: Cell Viability was measured by CellTiter-Glo assay (Promega U.S., Madison, Wis., USA). GTL-16 and A375 cells were grown in 6-well poly-D-lysine coated plates (BD Biosciences). Cells were treated with NVP-AUY922. Cell viability was measured 16, 24, 48 and 72 hr post-treatment with Hsp90 inhibitor. Briefly supernatants were removed and cells were washed with 3 ml of PBS, pH 7.4. 1 ml of a two component CellTiter-Glo reagent was added to each well and the plates were shaken vigorously for 2 min, followed by 10 min incubation at room temperature in the dark. Luminescent signal intensity was recorded with an integration time set between 0.25 and 1 s/well.

## CCNC(=O)c1noc(-c2cc(C(C)C)c(O)cc2O)c1-c1ccc(CN2CCOCC2)cc1 [NVP-AUY922, 5-(2,4-Dihydroxy-5-isopropyl-phenyl)-4-(4-morhpolin-4-ylmethyl-phenyl)-isoxazole-3-carboxylic acid ethylamide]
GTL-16 cells
  Hsp70 induction: induction was observed
  levels of phospho-ERK1/2 and phospho-c-Jun: significantly diminished
  total ERK and c-Jun levels: unaffected
  total cellular levels of NFκB p65 and c-REL: essentially unchanged
A375 tumor-bearing mice
  Hsp70 induction in tumor compared with GTL-16 model: same pattern of Hsp70 induction
A375 cells
  cell viability over time: steadily declines
